Assay results reported in PubChem BioAssay AID2384 (Southern Research Specialized Biocontainment Screening …, 2010).
pIC50: −log10 of the molar value. Several values for one entry are separate records, joined by “and”; a condition that tells them apart may be missing. Equal values may be shown once.

These molecules were tested on S. typhi GFP reporter counter-screen, fluorescence, 4 h (assay: inhibitors in S. typhi counter-screen strain, dose response, counter-screen for PhoP regulon inhibitor project, fluorescence, 4 h (AID 2384)).

Structure (SMILES)	pIC50
COc1ccc(C(=O)NNC(=S)NC(=O)c2ccccc2)cc1	4.03
CC1(C)N=C(N)NC(Nc2ccc(Br)cc2)=N1	3.96
O=C(N/N=C/c1ccc([N+](=O)[O-])o1)C1CCCC1	4.43
O=C(CCNC(=O)c1ccco1)Nc1ccc(SC(F)F)cc1	4.03
O=C(N/N=C/c1ccc([N+](=O)[O-])o1)c1ccc(O)cc1	4.42
Brc1ccc2c(c1)C(OC1CN3CCC1CC3)c1ccccc1CS2 (centres undefined)	4.50
O=C1c2cccc3cccc(c23)C(=O)C1(O)O	4.77
Oc1ccc(CN2CCN(Cc3ccccc3)CC2)c2cccnc12	4.59
N#C/C(=C(/O)c1ccco1)c1nc2ccccc2s1	4.24
CN1CCN(C2=Cc3ccccc3Sc3cc(F)c(Cl)cc32)CC1	4.57
CO[C@@]1(NC(=O)C2SC(=C(C(N)=O)C(=O)O)S2)C(=O)N2C(C(=O)O)=C(CSc3nnnn3C)CS[C@@H]21 (some centres undefined)	4.99
Cc1ccc(Nc2cc(C)nn2-c2nc(C)cc(=O)[nH]2)cc1	4.95
CC(c1cccnc1)N(CCN(C)C)C(=O)Nc1ccc(Cl)c(Cl)c1 (centres undefined)	4.01
C#CCOCCOCCOCCNc1nc(N2CCN(C(=O)[C@H](Cc3ccc(O)cc3)n3cc([C@@H](N)CC(C)C)nn3)CC2)nc(N2CCN(C(=O)[C@H](Cc3ccc(O)cc3)n3cc([C@@H](N)CC(C)C)nn3)CC2)n1	4.10
Cc1ccc2c(c1)c1c(n2CC(O)CNC2CCCCC2)CCCC1 (centres undefined)	4.06
CCN1CCN(Cc2ccc(NC(=O)c3ccc(C)c(NC(=O)C(=O)c4c[nH]c5ccccc45)c3)cc2C(F)(F)F)CC1	4.23
Oc1ccc(C[C@@H]2CNCCN2CCCCC2CCCCC2)cc1	4.43
CCCCc1ccc(N/C(N)=N/c2nc(C)cc(C)n2)cc1	4.28
COc1cc([N+](=O)[O-])cc(/C=N/NC(=O)C(C)Nc2cccc(C)c2)c1O (centres undefined)	3.87
Cc1ccc2c(c1)C1CN(C)CCC1N2Sc1ccccc1[N+](=O)[O-] (centres undefined)	4.42
CCCCCCCCCCOC(=O)Cn1c(COc2cccc(C)c2)[n+](C)c2ccccc21	5.01
CN(O)/C=c1/ccc2c(n1)C(=O)C=CC=2	4.71
CN(C)CCCNc1c2ccccc2nc2ccccc12	4.39
Cc1ccc2oc(=O)c(/C=C(\O)c3ccccc3)nc2c1	4.19
Cc1ccc(S(=O)(=O)NNc2ccccc2)c(C)c1	4.37
COc1cc2c(cc1O)[C@H](Cc1ccc(Oc3cc(C[C@@H]4NCCc5cc(OC)c(O)cc54)ccc3O)cc1)NCC2	4.19
O=[N+]([O-])c1cccc(NNS(=O)(=O)c2ccccc2F)c1	4.73

Structure (SMILES)	pIC50
O=C(Nc1cccc(C2=NCCN2)c1)Nc1cccc(C2=NCCN2)c1	4.35
Cc1cc(C)n(/N=C/c2cc([N+](=O)[O-])ccc2O)c(=O)c1	4.40
CCCC(=O)NC(c1ccco1)c1cc([N+](=O)[O-])c2cccnc2c1O (centres undefined)	4.60
O=C1C(=O)c2ccccc2-c2ccccc21	4.71
O[C@@H](c1cc(C(F)(F)F)nc2c(C(F)(F)F)cccc12)[C@H]1CCCCN1	4.42
O=C(/C=C/c1cccs1)NC(=S)NNC(=O)c1ccccc1O	4.58
CN(C)c1nnnn1-c1ccc(Oc2ccccc2)cc1	6.57
OC(CNCC1CCCO1)Cn1c2ccc(Cl)cc2c2cc(Cl)ccc21 (centres undefined)	4.63
NS(=O)(=O)c1ccc(CNc2ccc3ccccc3n2)cc1	3.84
O=C(Oc1c(Cl)cc(Cl)c2cccnc12)c1cccc([N+](=O)[O-])c1	5.03
O=c1cc(-c2ccc(O)cc2)oc2c(O)c(O)c(O)c(O)c12	4.45
OC1CNCc2cc3c(cc21)OCCO3 (centres undefined)	4.21
O=C(Nc1nnc(C(F)(F)F)s1)c1ccc(Br)s1	3.86
Nc1nc(F)nc2c1ncn2[C@@H]1O[C@H](CO)[C@@H](O)[C@H]1O	4.62
O=C(CSc1ccccn1)N/N=C/c1cc([N+](=O)[O-])ccc1O	4.39
NC1=NC[C@H](CC2CCCCC2)N1CCc1cc(C(F)(F)F)cc(C(F)(F)F)c1	4.45
O=CN/N=C/c1c(O)ccc2ccccc12	4.48
COc1ccc2c(c1OC)C(=O)N(c1ccc(C)cc1)C2=O	3.98
COc1ccc(C2NCCc3c2[nH]c2ccccc32)cc1COc1ccc(F)cc1 (centres undefined)	4.45
CCn1cc(C(=O)NCCN(C)C)c(=O)c2cc(F)c(N3CCN(C)CC3)cc21	4.28
CN1C(=O)NC(c2cccc(O)c2)C(C(=O)c2cccs2)C1(O)C(F)(F)F (centres undefined)	4.61
C=CC1=C(C(=O)O)N2C(=O)[C@@H](NC(=O)/C(=N/OCC(=O)O)c3csc(N)n3)[C@H]2SC1	4.78
CC1CCC(C(C)C)C(OC(=O)Cn2c(-c3ccc(Cl)cc3)[n+](C)c3ccccc32)C1 (centres undefined)	4.42
CCCN1CCC(NCc2cn(C)nc2-c2ccc(Oc3ccccc3)cc2)CC1	4.07
COc1ccccc1NC(=O)CN1CCC(c2nc3ccc(C)cc3[nH]2)CC1	3.84
CCn1cc(C(=O)NCCO)c(=O)c2cc(F)c(N3CCN(C)CC3)cc21	4.56
Cc1ccc(-c2csc(NC(=O)C[n+]3cc(-c4ccccc4)n4c3CCC4)n2)cc1	4.71

Structure (SMILES)	pIC50
O=C(Cc1ccc([N+](=O)[O-])cc1)N/N=C/c1ccc([N+](=O)[O-])o1	4.68
O=C(Nc1ccccc1)c1c(O)[nH]c(=S)[nH]c1=O	4.07
Cc1c(N2C(=O)/C(=C3\C(=O)N(CC(=O)O)c4ccccc43)SC2=S)c(=O)n(-c2ccccc2)n1C	4.02
CN(C)CCCNc1cc(C(C)(C)C)nc2c(-c3ccc(Cl)cc3)cnn12	4.73
Oc1ccc(C2NCc3ccccc3-n3cccc32)cc1Cl (centres undefined)	4.05
Cc1ccc2nc(NCc3ccccc3)[nH]c2c1	4.45
Cc1cc2nc(C3CCN(CC4COc5ccccc5O4)CC3)[nH]c2cc1C (centres undefined)	4.71
Cc1cc(Cl)c(OCCCNCc2ccccc2)c(Br)c1	4.43
CC1COc2c(N3CCN(C)CC3)c(F)cc3c(=O)c(C(=O)O)cn1c23 (centres undefined)	5.76
NC(=O)SCC(=O)Nc1cccc(Cl)c1	4.22
COc1ccc(CCN2CCC(Nc3nc4ccccc4n3Cc3ccc(F)cc3)CC2)cc1	4.53
CN(C)CCNC(=O)c1ccc(COc2ccc(Cl)cc2Cl)cc1	4.12
CN1CCN(CCCN2c3ccccc3Sc3ccc(Cl)cc32)CC1	4.38 and 4.62
Cc1nc2ccccn2c1C(=O)N/N=C/c1ccc([N+](=O)[O-])o1	4.37
Cc1nn(-c2cc(N3CCNCC3)ccc2[N+](=O)[O-])c(=O)c2ccccc12	3.85
Cc1ccc(C)c(Nc2cc(C)nc3ccccc23)c1	4.26
O=C1c2ccccc2NC(c2ccc(-c3ccc(Br)cc3)o2)N1O (centres undefined)	4.59
CCCCCCCNC(=O)C1(CC2CC(c3cccc(Br)c3)=NO2)CCNCC1 (centres undefined)	4.40
Cc1cccc(Nc2c3c(nc4ccccc24)CCC3)c1	4.22
Fc1ccc(NC(=S)Nc2cc(-c3ccccc3)[nH]n2)cc1Cl	4.14
O=C(O)/C(=C\C(=O)c1ccccc1)Nc1ccccc1	3.99
N=c1c2c(n(Cc3ccc(Cl)cc3Cl)c3c1CCC3)CCCC2	4.43
Cc1ccc(Nc2cc(C)c3c(O)cccc3n2)cc1C	4.93
CCOc1ccc(OCCSc2nc(C)cc(=O)[nH]2)cc1	3.83
C#CCOCCOCCOCCNc1nc(N2CCN(C(=O)[C@H](Cc3cc4ccccc4[nH]3)n3cc([C@@H](N)C(C)CC)nn3)CC2)nc(N2CCN(C(=O)[C@H](Cc3cc4ccccc4[nH]3)n3cc([C@@H](N)Cc4ccc(O)cc4)nn3)CC2)n1 (some centres undefined)	4.73
